{"source": "paper PMC2990587", "about": "“Central nervous system penetration and enhancement of temozolomide activity in childhood medulloblastoma models by poly(ADP-ribose) polymerase inhibitor AG-014699” (British Journal of Cancer, 2010)", "key": {"D384Med xenografts": {"system": "D384Med xenografts", "test": "Tumour growth inhibition in vivo, D384Med xenografts", "design": "species or system mouse", "excerpt": "(§1) All of the in vivo experiments were reviewed and approved by the relevant institutional animal welfare committees, and performed according to national law. Female athymic nude mice (CD1 nu/nu; Charles River, Margate, UK) used for anti-tumour studies were maintained and handled in isolators under specific pathogen-free conditions. […], […] and […] (1 × 10^7 exponentially growing cells per mouse, harvested and implanted in growth media) xenografts were established by sub-cutaneous implantation into CD-1 nude mice. […] Treatment was initiated when sufficient number of mice had established tumours to allow randomisation into treatment groups: day 17 for […], day 26 for […] and day 32 for […]. […] For drug combinations, AG-014699 was administered immediately after administering temozolomide. […] Tumour growth delay (TGD) is defined as the time to RTV4 in drug-treated mice compared with the time to RTV4 in control (vehicle alone) mice. Median tumour volume is shown, rather than the mean, as this is generally accepted as the most statistically reliable representation of the average growth rate of tumours in a small group of mice, if a normal distribution of tumour volumes cannot be assumed. Tumour growth delay was calculated as: median time to RTV4 in treated group-median time to RTV4 in control group."}, "PARP-1 [1]": {"target": "T1, PARP-1 (Mus musculus, UniProt P11103)", "T1 construct": "from tissue; host or cells: brain of CD-1 nude mice", "T1 sequence (P11103 whole entry)": "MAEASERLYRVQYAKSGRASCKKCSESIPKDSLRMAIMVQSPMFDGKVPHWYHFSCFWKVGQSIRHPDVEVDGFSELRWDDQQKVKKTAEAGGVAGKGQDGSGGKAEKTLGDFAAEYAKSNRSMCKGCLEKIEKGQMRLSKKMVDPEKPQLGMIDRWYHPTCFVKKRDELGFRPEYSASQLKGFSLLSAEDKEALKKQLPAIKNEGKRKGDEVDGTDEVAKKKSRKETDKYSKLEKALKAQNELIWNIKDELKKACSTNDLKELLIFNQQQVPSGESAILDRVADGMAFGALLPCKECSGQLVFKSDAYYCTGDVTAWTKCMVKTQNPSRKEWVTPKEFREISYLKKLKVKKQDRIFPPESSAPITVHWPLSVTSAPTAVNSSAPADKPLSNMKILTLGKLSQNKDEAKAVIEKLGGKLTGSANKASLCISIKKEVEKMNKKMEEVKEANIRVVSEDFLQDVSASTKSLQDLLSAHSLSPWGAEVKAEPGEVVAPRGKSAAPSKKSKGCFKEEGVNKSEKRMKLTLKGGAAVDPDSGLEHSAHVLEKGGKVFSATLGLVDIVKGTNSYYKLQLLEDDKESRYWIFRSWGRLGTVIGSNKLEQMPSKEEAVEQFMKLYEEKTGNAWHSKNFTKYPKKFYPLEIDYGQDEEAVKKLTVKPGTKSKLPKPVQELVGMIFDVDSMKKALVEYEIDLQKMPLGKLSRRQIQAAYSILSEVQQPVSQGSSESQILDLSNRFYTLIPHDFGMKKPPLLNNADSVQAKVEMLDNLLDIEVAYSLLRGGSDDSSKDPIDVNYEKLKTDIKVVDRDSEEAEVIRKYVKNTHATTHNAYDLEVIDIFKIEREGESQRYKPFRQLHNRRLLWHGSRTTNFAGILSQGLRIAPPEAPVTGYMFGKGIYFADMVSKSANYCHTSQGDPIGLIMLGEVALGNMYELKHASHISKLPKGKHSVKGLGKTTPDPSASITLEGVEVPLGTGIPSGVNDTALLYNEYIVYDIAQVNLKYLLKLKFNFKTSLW", "test": "PARP activity in brain homogenates after AG-014699 dosing", "assay_type": "in vivo", "experimental": "(§2) One or four daily doses of PARP inhibitor AG-014699 (1 mg kg^−1 intraperitoneally (i.p.)) were given to CD-1 nude mice bearing established D283Med xenografts. At 0.5, 2, 6 and 24 h after the initial or fourth daily dose of AG-014699, three animals per time point were bled by cardiac puncture under general anaesthesia, and then killed. Plasma was separated from the blood samples using standard methods and stored at −80°C. The brains and tumours were removed, snap frozen in liquid nitrogen and stored at −80°C before analysis. Blood, tumour and brain tissue were removed from three untreated control animals and processed in the same way.\n(§3) PARP activity was determined in homogenates of subcutaneous D283Med xenografts and brain tissue (see above). Maximally stimulated PARP activity was measured in replicate samples (n⩾3) of a 1 : 1000 dilution of the homogenate as described for permeabilised D283Med cells (see above). Data were calculated as pmol PAR per mg protein by reference to the PAR standard curve and protein content of the sample and expressed as a percentage of the corresponding tissue from the saline-treated control animals. The mean PARP activity in xenograft and brain samples taken at each time point was expressed as a percentage of the mean PARP activity of control xenografts from untreated mice (n=3)."}, "PARP-1 [2]": {"target": "T2, PARP-1 (Homo sapiens, UniProt P09874)", "T2 sequence (P09874 whole entry)": "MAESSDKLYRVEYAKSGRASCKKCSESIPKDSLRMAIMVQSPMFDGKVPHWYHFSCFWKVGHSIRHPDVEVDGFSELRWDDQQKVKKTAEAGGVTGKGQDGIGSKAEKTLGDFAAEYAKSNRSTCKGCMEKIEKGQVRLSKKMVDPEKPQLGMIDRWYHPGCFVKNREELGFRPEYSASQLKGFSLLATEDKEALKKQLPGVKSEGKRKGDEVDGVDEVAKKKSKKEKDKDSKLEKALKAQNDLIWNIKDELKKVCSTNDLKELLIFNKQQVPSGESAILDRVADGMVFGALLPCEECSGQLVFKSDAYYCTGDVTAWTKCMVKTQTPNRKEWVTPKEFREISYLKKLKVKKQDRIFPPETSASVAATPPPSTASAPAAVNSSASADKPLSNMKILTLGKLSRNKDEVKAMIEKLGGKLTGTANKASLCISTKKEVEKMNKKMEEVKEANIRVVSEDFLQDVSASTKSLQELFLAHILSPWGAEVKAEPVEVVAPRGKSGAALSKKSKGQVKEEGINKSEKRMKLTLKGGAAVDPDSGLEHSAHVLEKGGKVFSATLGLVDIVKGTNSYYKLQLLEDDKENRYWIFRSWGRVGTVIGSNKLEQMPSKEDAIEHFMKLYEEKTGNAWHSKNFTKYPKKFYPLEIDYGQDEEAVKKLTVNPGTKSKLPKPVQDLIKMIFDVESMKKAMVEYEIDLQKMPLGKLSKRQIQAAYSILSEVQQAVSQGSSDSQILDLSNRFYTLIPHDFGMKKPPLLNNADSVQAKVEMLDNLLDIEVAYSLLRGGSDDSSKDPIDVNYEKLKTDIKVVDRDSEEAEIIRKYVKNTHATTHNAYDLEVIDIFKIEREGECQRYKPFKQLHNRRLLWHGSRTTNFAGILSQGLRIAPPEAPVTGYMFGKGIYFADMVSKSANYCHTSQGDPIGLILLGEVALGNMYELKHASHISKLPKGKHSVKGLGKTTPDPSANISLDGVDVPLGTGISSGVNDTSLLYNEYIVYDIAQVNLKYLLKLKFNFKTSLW", "test": "PARP activity in permeabilised D283Med cells (10H anti-PAR immunoassay)", "assay_type": "cell-based", "experimental": "Inhibition of PARP activity in 5000 exponentially growing D283Med cells was measured following treatment with a range of AG-014699 concentrations (0–1 μM), in comparison with DMSO-only controls. Maximally stimulated PARP activity was measured in replicate samples (n⩾3) of permeabilised cells by immunological detection of the amount of poly(ADP-ribose) (PAR) formed, using 10H anti-PAR antibody, during a 6-min incubation with NAD^+ and oligonucleotide (substrate and activator) by reference to a PAR (Biomol Research Labs, Plymouth, PA, USA) standard curve using a GCLP-validated assay described previously ([Plummer et al, 2005])."}, "D425Med cells": {"system": "D425Med cells", "test": "XTT growth inhibition, D425Med", "assay_type": "cell-based, human", "experimental": "(§4) Cell growth inhibition was estimated in exponentially growing D425Med, D283Med and D384Med cells in 96-well plates. Seeding densities of 1 × 10^3, 3 × 10^3 and 3 × 10^3 cells, respectively, ensured exponential growth for the duration of the experiment. At 24 h (D384Med) or 48 h (D283Med and D425Med) after seeding, cells were exposed to varying concentrations of temozolomide, as described in the Results, in the presence or absence of 0.4 μM AG-014699, a concentration previously shown to enhance temozolomide cytotoxicity in adult tumour cell lines ([Thomas et al, 2007]). After 3 days (D425Med and D384Med) or 5 days (D283Med) of culture (equivalent to approximately three cell divisions), the cell viability was quantified using an XTT cell proliferation kit assay (Roche, Mannheim, Germany), according to the manufacturer's instructions. Cell growth was expressed as a percentage in relation to DMSO or 0.4 μM AG-014699-alone controls. The concentration of temozolomide, alone or in combination with AG-014699, that inhibited growth by 50% (GI50) was calculated from computer-generated curves (GraphPad Software, San Diego, CA, USA). The potentiation factor50 (PF50) is defined as the ratio of […]. All data were from at least three independent experiments."}, "D384Med cells": {"system": "D384Med cells", "test": "XTT growth inhibition, D384Med", "assay_type": "cell-based, human", "experimental": "as §4"}, "D283Med cells": {"system": "D283Med cells", "test": "XTT growth inhibition, D283Med", "assay_type": "cell-based, human", "experimental": "as §4"}, "PARP-1 [3]": {"target": "T2, PARP-1", "test": "PARP activity in D283Med xenograft homogenates after AG-014699 dosing", "assay_type": "in vivo, mouse", "experimental": "as §2, §3"}, "D283Med xenografts": {"system": "D283Med xenografts", "test": "Tumour growth inhibition in vivo, D283Med xenografts", "design": "species or system mouse", "excerpt": "as §1"}}, "note": "“Also recorded” adds a separate entry of the source.", "data": [{"smiles": "CNCc1ccc(-c2[nH]c3cc(F)cc4c3c2CCNC4=O)cc1", "note": "[AG-014699]", "values": [{"measurement": "Median nadir body weight (% starting weight)", "setting": "D384Med xenografts; D384Med-bearing mice, daily x5, TMZ 68 mg kg−1 p.o., AG-014699 1 mg kg−1 i.p.", "value": 96, "unit": "% starting weight"}, {"measurement": "Median time to RTV4", "setting": "D384Med xenografts; D384Med, daily x5, TMZ 68 mg kg−1 p.o., AG-014699 1 mg kg−1 i.p.", "value": 20, "unit": "days"}, {"measurement": "Complete regressions", "setting": "D384Med xenografts; D384Med, mice with regression/group, transient", "value": "0/5"}, {"measurement": "Tumour growth delay", "setting": "D384Med xenografts; D384Med, versus control time to RTV4", "value": 4, "unit": "days"}, {"measurement": "PARP activity in brain", "setting": "PARP-1 [1]; 24 h after fourth daily dose 1 mg kg−1 i.p.", "value": "near-normal activity"}, {"measurement": "Reduction of PARP activity in brain", "setting": "PARP-1 [1]; 24 h after single dose 1 mg kg−1 i.p.", "value": "approximately 40%"}, {"measurement": "Reduction of PARP activity in brain tissue", "setting": "PARP-1 [1]; abstract, time not stated", "value": "≥ 75", "unit": "%"}, {"measurement": "Reduction of PARP activity in brain", "setting": "PARP-1 [1]; first 2 h after single dose 1 mg kg−1 i.p.", "value": "around 75%"}, {"measurement": "Inhibition of PARP-1 activity", "setting": "PARP-1 [2]; 0.1 μM AG-014699", "value": 80, "unit": "%"}, {"measurement": "Inhibition of PARP-1 activity", "setting": "PARP-1 [2]; 0.4 μM AG-014699", "value": "> 95", "unit": "%"}, {"measurement": "inhibition at 0.1 µM", "setting": "PARP-1 [2]; D283 Med, 0.1 μM AG-014699", "value": 81.1, "unit": "%"}, {"measurement": "inhibition at 0.4 µM", "setting": "PARP-1 [2]; D283 Med, 0.4 μM AG-014699", "value": 96.8, "unit": "%"}, {"measurement": "inhibition at 1 µM", "setting": "PARP-1 [2]; D283 Med, 1 μM AG-014699", "value": 97.1, "unit": "%"}, {"measurement": "Sensitisation to temozolomide by AG-014699", "setting": "D425Med cells; D425Med (MGMT-deficient), 0.4 μM AG-014699", "value": "not sensitised; also recorded: no sensitisation; also recorded: did not enhance temozolomide sensitivity"}, {"measurement": "Growth inhibition by AG-014699 alone", "setting": "D425Med cells; D425Med, 0.4 μM, data not shown", "value": "not growth inhibitory"}, {"measurement": "PF50", "setting": "D425Med cells; D425Med, potentiation of temozolomide by 0.4 μM AG-014699", "value": "0.7±0.4"}, {"measurement": "Sensitisation to temozolomide by AG-014699", "setting": "D384Med cells; D384Med (MGMT+ MMR+), 0.4 μM AG-014699", "value": "> 3", "unit": "fold"}, {"measurement": "Growth inhibition by AG-014699 alone", "setting": "D384Med cells; D384Med, 0.4 μM, data not shown", "value": "not growth inhibitory"}, {"measurement": "PF50", "setting": "D384Med cells; D384Med, potentiation of temozolomide by 0.4 μM AG-014699", "value": "3.8±1"}, {"measurement": "Sensitisation to temozolomide by AG-014699", "setting": "D283Med cells; D283Med (MMR-defective), 0.4 μM AG-014699", "value": 20, "unit": "fold"}, {"measurement": "Growth inhibition by AG-014699 alone", "setting": "D283Med cells; D283Med, 0.4 μM, data not shown", "value": "not growth inhibitory"}, {"measurement": "PF50", "setting": "D283Med cells; D283Med, potentiation of temozolomide by 0.4 μM AG-014699", "value": "19±4.7"}, {"measurement": "Reduction of PARP activity in tumour (nadir)", "setting": "PARP-1 [3]; D283Med xenograft, 6 h post-injection, similar after first and fourth dose, 1 mg kg−1 i.p.", "value": "around 75%"}, {"measurement": "Reduction of PARP activity in xenograft tissue", "setting": "PARP-1 [3]; abstract, time not stated", "value": "≥ 75", "unit": "%"}, {"measurement": "Median nadir body weight (% starting weight)", "setting": "D283Med xenografts; D283Med-bearing mice, daily x5, TMZ 68 mg kg−1 p.o., AG-014699 1 mg kg−1 i.p.", "value": 100, "unit": "% starting weight"}, {"measurement": "Median time to RTV4", "setting": "D283Med xenografts; D283Med, daily x5, TMZ 68 mg kg−1 p.o., AG-014699 1 mg kg−1 i.p.", "value": 8, "unit": "days"}, {"measurement": "Complete regressions", "setting": "D283Med xenografts; D283Med, mice with regression/group", "value": "0/5"}, {"measurement": "Tumour growth delay", "setting": "D283Med xenografts; D283Med, versus control time to RTV4", "value": 1, "unit": "days"}]}]}
